Results published in US8426463B2, “[((1R,2S,5R)-2-isopropyl-5-methyl-cyclohexanecarbonyl)-amino]-acetic acid isopropyl ester and related compounds and their use in therapy” (priority 2011, dated 2013).

Assays:
[1] = system: ocular surface (non-keratinized stratified epithelium); experiment: Ocular surface bioassay: duration of cooling after towelette wipe on closed eyelids; type: in vivo, human
Procedure: Bioassay on Non-Keratinized Stratified Epithelium: Ocular Surface
For testing on the ocular surface, a towelette containing the test compound was used as the delivery unit. The test compound was dissolved first in absolute ethanol and then distilled water was added to form a standard 1 mg/mL solution in a 3 to 5% by weight ethanol-water solution. Three mL of the test solution was then added to a 0.4 g cotton rectangle (50 mm×60 mm) (CS-being, Daisan Cotton, Japan) and individually sealed with a vacuum apparatus (Foodsaver®, Jarden Corp.). Samples were stored in a freezer or refrigerator and thawed to room temperature before use. Wiping with the cotton pad delivers 40 to 45 μL of liquid composition to the closed eyelids (˜20 to 22 μL per eye surface). Thus, if the concentration of the test compound was 1 mg/mL, the dose delivered to both eyes is a total of ˜40 to 42 μg, or ˜20 μg per eye. The presence or absence of cooling sensations felt on the ocular surface was noted as being present or absent at 5 to 10 minute intervals until no coolness was noticeable in two successive test intervals. Only the duration of cooling on the ocular surface was recorded, without an attempt to quantify the intensity of the sensation.

[2] = system: pharyngeal and esophageal receptors; experiment: Cooling sensations in the chest after Gly-O-iPr with or without icilin; set-up: species or system human; conditions: in vivo
Excerpt: The cooling sensations in the chest that result from the Gly-O-iPr/icilin combination may provide symptomatic relief of discomfort in the airways (larynx, trachea, bronchi) in conditions such as asthma and COPD.

[3] = system: dry, scratchy throat with cough; experiment: Study 4: chewing gum and ODT in a subject with scratchy throat and cough; type: in vivo, human
Excerpt: A person's child moved away from their neighborhood to go to college and they became responsible for taking care of their two cats. Initially everything was all right, but then they became sensitized to the litter box dust generated when they were cleaning after the cats. They developed a dry, scratchy throat with cough, and this was severely aggravated by their seasonal allergy to grass pollen, so that they were constantly clearing their throat. […] After about two weeks of coughing and discomfort, they agreed to try Gly-O-iPr, first spread as 3 mg per wafer of Wrigley spearmint chewing gum, and then later formulated in an orally disintegrating tablet at 3 mg per unit dose. The medicated chewing gum and the ODT both provided relief within five minutes after administration. The sense of discomfort in the throat was attenuated and the effect lasted for about four hours and the dose could be repeated with the same beneficial effect. This individual preferred the ODT method of delivery as they considered this more efficient than chewing gum. After using the ODT containing Gly-O-iPr for ten days on an “as-needed basis” […] cough and scratchy throat disappeared and they are now well.

allergic conjunctivitis = experiment: Study 3: eye wipes in a subject with allergic conjunctivitis; type: in vivo, human
Excerpt: A laboratory scientist suffered from seasonal allergic conjunctivitis. This condition was severely aggravated when […] started doing experiments with laboratory animals (rats and mice) and […] became sensitized to the associated allergens. The conjunctivitis was not relieved by oral or topical eye drops containing antihistamines and the subject was reluctant to consider the use of anti-inflammatory steroid ointments. Upon examination, their eyes were blood-shot and watery and they kept rubbing their eyelids with their fingers even though they knew this action may further aggravate the itch and discomfort. They volunteered to try eye wipes containing 1.0 mg/mL of Gly-O-iPr. The relief of itch and discomfort was obtained within 5 minutes and lasted for at least four hours.

[4] = system: oropharyngeal surface (non-keratinized stratified epithelium); experiment: Oropharyngeal surface bioassay: ODT followed by chili pepper sauce challenge; type: in vivo, human; set-up: key to Non-Keratinized Stratified Epithelia (NKSE) Oropharyngeal Surface, attenuation of chili pepper sauce irritation: If there was no attenuation of the challenge stimuli, the score was (0); if there was partial inhibition, the score was (+); if there was complete attenuation of the irritant signal, the score was (++)
Excerpt: Bioassay on Non-Keratinized Stratified Epithelium: Oropharyngeal Surface
A number of irritants have been evaluated for evoking the cough sensation as a measure of pharygeal sensitivity (see, e.g., Morice et al., 2001, “Cough Challenge in the Assessment of Cough Reflex”, Brit. J. Clin. Pharmacol., Vol. 52, pp. 365-375). Usually, citric acid or capsaicin is delivered via the inhalation route to volunteers and the number of coughs counted. […] The chili pepper sauce mixes with the saliva and the saliva is then deposited on the posterior oropharynx. The chili pepper sauce used was Yank Sing® Chili Pepper Sauce (YS Gourmet Productions, Inc., PO Box 26189, San Francisco, Calif. 94126) and is a well-known condiment for use with dim sum (Chinese tea lunch). The sensations associated with the chili pepper sauce are located in the posterior wall of the mouth and are clearly recognized by the test subject and associated with a desire to clear the throat.
The ODT was formulated by taking an ingredient, dissolving it in absolute ethanol, and then adding 10% by weight of maltitol, and 90% by weight of mannitol, and then an equal volume of distilled water. The mixture was the stirred with a glass rod, and dispensed onto a piece of wax paper with a disposable plastic pipette. The individual dried tablets weighed on average 150 mg each and when on the dorsal surface of the tongue, dissolved completely in saliva and coated the oropharyngeal surface. On average, the amount of the test substance was 2.5 to 3 mg per tablet.
To test for anti-nociceptive activity, the ODT containing the test compound was first administered onto the dorsal surface of the tongue; 45 to 50 minutes later, the chili-pepper sauce challenge is administered. At this time, the coolness sensations from the test compound have dissipated and the test is to determine if an anti-nociceptive effect remains. Results were reported as follow: If there was no attenuation of the challenge stimuli, the score was (0), if there was partial inhibition, the score was (+), and if there was complete attenuation of the irritant signal, the score was (++). In the presence of an ODT containing an active ingredient that results in a (++) score, the irritative signals were completely absent, yet the salty taste used in the soy sauce of the condiment could be readily identified and tasted.
In one formulation (used in the biological evaluation studies described herein), orally disintegrating tablets (ODTs) were prepared using an 80:20 by weight mixture of mannitol-maltitol (Pearlitol™ and Sweetpearl™, Roquette Freres, France). This carrier has the advantage of completely masking bitter tastes that might be present in some of the test compounds. The test compound was first mixed with the mannitol-maltitol using a mortar and pestle, and then suspended in an equal volume of 10:90 v/v ethanol-distilled water. A disposable pipette was then used to aliquot the liquid mixture onto a sheet of wax paper and dried at room temperature. The dried tablets were then weighed and sorted. It was found by experiment that an 80 mg tablet containing 2 to 3 mg of test compound dissolved within 15 seconds when placed on the dorsal surface of the tongue and provided a good test dose.

[5] = 3 mg per chewing gum wafer or 3 mg ODT, one subject

In the case of `CC(C)OC(=O)CNC(=O)[C@@H]1C[C@H](C)CC[C@H]1C(C)C` [Gly-O-iPr, [((1R,2S,5R)-2-isopropyl-5-methyl-cyclohexanecarbonyl)-amino]-acetic acid isopropyl ester], the “duration of cooling effect on the ocular surface, on average” value ([1]; 1 mg/mL) is reported as 5 h, the “Non-Keratinized Stratified Epithelia (NKSE) Ocular Surface (min), duration of cooling” value ([1]; applied to the closed eyelids using a towellette at 1 mg/mL in 5%-95% v/v ethanol-distilled water) is reported as 300 min and the “rank order of duration of action of ocular wipes” value ([1]; six subjects, randomized double-blind study, three trials per wipe) is reported as “Gly-O-iPr>>Gly-O-nPr>Gly-O-Et”. For the same molecule, the “duration of cooling on the ocular surface” value ([1]; test concentration increased to 1.5 mg/mL) was “about 6.5 hours”, the “cooling sensations in the chest” value [2] was “less effective” and the “duration of attenuated throat discomfort” value [3, 5] was “about four”. For the same molecule, the “time to relief after administration” value [3, 5] was “five”, the “cough and scratchy throat” value ([3]; ODT as needed for ten days) was “disappeared” and the “time to relief of itch and discomfort” value (allergic conjunctivitis; eye wipes containing 1.0 mg/mL, one subject) was ≤ 5 min. The “over-all itchiness and redness” value (allergic conjunctivitis; wipes as needed for three days) was “reduced significantly”, the “sensation on the oropharyngeal surface” value ([4]; ODT) was “refreshing cooling sensation” and the “Non-Keratinized Stratified Epithelia (NKSE) Oropharyngeal Surface, attenuation of chili pepper sauce irritation” value ([4]; ODT containing 2.5 to 3 mg of active ingredient, chili pepper sauce 45 minutes later) was “++”. For the same molecule, the “effect on the response to the chili pepper sauce” value ([4]; ODT, same test conditions) was “blocked the response to the chili pepper sauce”.
